Source: PubChem BioAssay (NCI)
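The concentration for 50% growth inhibition is given as GI50. At the TGI there is no net growth.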

Key:
Test in all cases: growth of human tumour cells (NCI), 384-well format
HCT-116 colon = test system: HCT-116 colon
DU-145 prostate = test system: DU-145 prostate
IGROV1 ovarian = test system: IGROV1 ovarian
SK-MEL-28 melanoma = test system: SK-MEL-28 melanoma
SN12C renal = test system: SN12C renal
SR leukemia = test system: SR leukemia
BT-549 breast = test system: BT-549 breast
KM12 colon = test system: KM12 colon
COLO 205 colon = test system: COLO 205 colon
EKVX NSCLC = test system: EKVX NSCLC
SF-295 CNS = test system: SF-295 CNS
ACHN renal = test system: ACHN renal
SNB-19 CNS = test system: SNB-19 CNS
OVCAR-3 ovarian = test system: OVCAR-3 ovarian
MDA-MB-231 breast = test system: MDA-MB-231 breast
U251 glioblastoma = test system: U251 glioblastoma
UO-31 renal = test system: UO-31 renal
HT29 colon = test system: HT29 colon
PC-3 prostate = test system: PC-3 prostate
NCI-H522 lung = test system: NCI-H522 lung
HS 578T breast = test system: HS 578T breast
A549 NSCLC = test system: A549 NSCLC
A498 renal = test system: A498 renal
NCI-H460 NSCLC = test system: NCI-H460 NSCLC
NCI-H322M lung = test system: NCI-H322M lung
HCT-15 colon = test system: HCT-15 colon
NCI-H226 lung = test system: NCI-H226 lung
T-47D breast = test system: T-47D breast
MDA-MB-468 breast = test system: MDA-MB-468 breast
UACC-257 melanoma = test system: UACC-257 melanoma
NCI-H23 lung = test system: NCI-H23 lung
SNB-75 CNS = test system: SNB-75 CNS
786-0 renal = test system: 786-0 renal
SW-620 colon = test system: SW-620 colon
RXF 393 renal = test system: RXF 393 renal
MOLT-4 leukemia = test system: MOLT-4 leukemia
SF-539 CNS = test system: SF-539 CNS
OVCAR-5 ovarian = test system: OVCAR-5 ovarian
MALME-3M melanoma = test system: MALME-3M melanoma
OVCAR-8 ovarian = test system: OVCAR-8 ovarian
K-562 leukemia = test system: K-562 leukemia
M14 melanoma = test system: M14 melanoma
HOP-92 NSCLC = test system: HOP-92 NSCLC
CAKI-1 renal = test system: CAKI-1 renal
MCF7 breast = test system: MCF7 breast
SF-268 CNS = test system: SF-268 CNS
SK-MEL-2 melanoma = test system: SK-MEL-2 melanoma
OVCAR-4 ovarian = test system: OVCAR-4 ovarian
MDA-MB-435 melanoma = test system: MDA-MB-435 melanoma
HL-60(TB) leukemia = test system: HL-60(TB) leukemia
SK-MEL-5 melanoma = test system: SK-MEL-5 melanoma
HOP-62 NSCLC = test system: HOP-62 NSCLC
SK-OV-3 ovarian = test system: SK-OV-3 ovarian
TK-10 renal = test system: TK-10 renal
UACC-62 melanoma = test system: UACC-62 melanoma

SMILES: COC1(C(=O)N[C@@H](C)c2ccc(-n3cc(F)cn3)nc2)CCC(c2nc(C)cc(Nc3cc(C)[nH]n3)n2)CC1 (stereo not given in full)
- GI50 (HCT-116 colon): 4.04 µM
- TGI (HCT-116 colon): 17.3 µM
- GI50 (DU-145 prostate): 1.72 µM
- TGI (DU-145 prostate): 4.04 µM
- GI50 (IGROV1 ovarian): 0.304 µM
- TGI (IGROV1 ovarian): 1.37 µM
- GI50 (SK-MEL-28 melanoma): 12 µM
- TGI (SK-MEL-28 melanoma): 24.5 µM
- GI50 (SN12C renal): 0.493 µM
- TGI (SN12C renal): 10 µM
- GI50 (SR leukemia): 2.13 µM
- TGI (SR leukemia): 5.27 µM
- GI50 (BT-549 breast): 0.813 µM
- TGI (BT-549 breast): 2.56 µM
- GI50 (KM12 colon): 5.12 µM
- TGI (KM12 colon): 18.3 µM
- GI50 (COLO 205 colon): 13.8 µM
- TGI (COLO 205 colon): 26.9 µM
- GI50 (EKVX NSCLC): 0.545 µM
- TGI (EKVX NSCLC): 2.29 µM
- GI50 (SF-295 CNS): 1.39 µM
- TGI (SF-295 CNS): 4.21 µM
- GI50 (ACHN renal): 0.896 µM
- TGI (ACHN renal): 4.45 µM
- GI50 (SNB-19 CNS): 3.69 µM
- TGI (SNB-19 CNS): 18.1 µM
- GI50 (OVCAR-3 ovarian): 1.67 µM
- TGI (OVCAR-3 ovarian): 12.8 µM
- GI50 (MDA-MB-231 breast): 2.6 µM
- TGI (MDA-MB-231 breast): 14 µM
- GI50 (U251 glioblastoma): 1.54 µM
- TGI (U251 glioblastoma): 12.3 µM
- GI50 (UO-31 renal): 1.14 µM
- TGI (UO-31 renal): 2.78 µM
- GI50 (HT29 colon): 4.94 µM
- TGI (HT29 colon): 19.1 µM
- GI50 (PC-3 prostate): 3.42 µM
- TGI (PC-3 prostate): 15.7 µM
- GI50 (NCI-H522 lung): 1.19 µM
- TGI (NCI-H522 lung): 3.11 µM
- GI50 (HS 578T breast): 0.253 µM
- TGI (HS 578T breast): 1.58 µM
- GI50 (A549 NSCLC): 2.41 µM
- TGI (A549 NSCLC): 12 µM
- GI50 (A498 renal): 1.83 µM
- TGI (A498 renal): 4.4 µM
- GI50 (NCI-H460 NSCLC): 0.0527 µM
- TGI (NCI-H460 NSCLC): 13.7 µM
- GI50 (NCI-H322M lung): 2.12 µM
- TGI (NCI-H322M lung): 11.1 µM
- GI50 (HCT-15 colon): 4.58 µM
- TGI (HCT-15 colon): 17.2 µM
- GI50 (NCI-H226 lung): 0.246 µM
- TGI (NCI-H226 lung): 2.08 µM
- GI50 (T-47D breast): 2.28 µM
- TGI (T-47D breast): 10.7 µM
- GI50 (MDA-MB-468 breast): 1.74 µM
- TGI (MDA-MB-468 breast): 4.8 µM
- GI50 (UACC-257 melanoma): 15.7 µM
- TGI (UACC-257 melanoma): 29.3 µM
- GI50 (NCI-H23 lung): 0.629 µM
- TGI (NCI-H23 lung): 10.6 µM
- GI50 (SNB-75 CNS): 0.285 µM
- TGI (SNB-75 CNS): 1.32 µM
- GI50 ([…]-0 renal): 1.82 µM
- TGI (786-0 renal): 6.42 µM
- GI50 (SW-620 colon): 2.58 µM
- TGI (SW-620 colon): 17 µM
- GI50 (RXF 393 renal): 0.138 µM
- TGI (RXF 393 renal): 0.671 µM
- GI50 (MOLT-4 leukemia): 1.84 µM
- TGI (MOLT-4 leukemia): 5.62 µM
- GI50 (SF-539 CNS): 0.226 µM
- TGI (SF-539 CNS): 1.12 µM
- GI50 (OVCAR-5 ovarian): 2.31 µM
- TGI (OVCAR-5 ovarian): 13.9 µM
- GI50 (MALME-3M melanoma): 11.3 µM
- TGI (MALME-3M melanoma): 23.6 µM
- GI50 (OVCAR-8 ovarian): 3.35 µM
- TGI (OVCAR-8 ovarian): 12.9 µM
- GI50 (K-562 leukemia): 1.7 µM
- TGI (K-562 leukemia): 11.6 µM
- GI50 (M14 melanoma): 11.3 µM
- TGI (M14 melanoma): 23.4 µM
- GI50 (HOP-92 NSCLC): 0.691 µM
- TGI (HOP-92 NSCLC): 2.67 µM
- GI50 (CAKI-1 renal): 1.28 µM
- TGI (CAKI-1 renal): 2.69 µM
- GI50 (MCF7 breast): 2 µM
- TGI (MCF7 breast): 14.4 µM
- GI50 (SF-268 CNS): 1.38 µM
- TGI (SF-268 CNS): 3.69 µM
- GI50 (SK-MEL-2 melanoma): 11 µM
- TGI (SK-MEL-2 melanoma): 23.1 µM
- GI50 (OVCAR-4 ovarian): 2.12 µM
- TGI (OVCAR-4 ovarian): 17.8 µM
- GI50 (MDA-MB-435 melanoma): 11.7 µM
- TGI (MDA-MB-435 melanoma): 24.1 µM
- GI50 (HL-60(TB) leukemia): 5.4 µM
- TGI (HL-60(TB) leukemia): 18.5 µM
- GI50 (SK-MEL-5 melanoma): 2.3 µM
- TGI (SK-MEL-5 melanoma): 11.2 µM
- GI50 (HOP-62 NSCLC): 1.46 µM
- TGI (HOP-62 NSCLC): 6.13 µM
- GI50 (SK-OV-3 ovarian): 0.605 µM
- TGI (SK-OV-3 ovarian): 2.64 µM
- GI50 (TK-10 renal): 1.4 µM
- TGI (TK-10 renal): 3.93 µM
- GI50 (UACC-62 melanoma): 5.55 µM
- TGI (UACC-62 melanoma): 18.5 µM
